Test results from PMC8126654, “Novel Pan-Pim Kinase Inhibitors With Imidazopyridazine and Thiazolidinedione Structure Exert Potent Antitumor Activities” (Frontiers in Pharmacology, 2021).

Experiments:
[1] = tested on: HCT116; test: Apoptosis assay in HCT116 (Hoechst 33342 nuclear morphology, Cell Death ELISA); format: cell-based
Experimental: For caspase-3/7 activity assay, the Caspase-Glo 3/7 Assay System (Promega, Madison, WI) was used according to the manufacturer’s protocol. […] The Caspase-Glo 3/7 reagent was then added to each well and incubated for 1 h, and caspase-3/7 activity was measured. […] After treatment, cells were stained in 0.5 μg/ml Hoechst 33342 for 30 min. Subsequently, cell morphology was observed and images were captured from random visual fields using fluorescence microscopy (Biozero BZ-8100, Keyence, Osaka, Japan). […] After treatment, DNA fragmentation was detected using the Cell Death Detection ELISA^PLUS (Roche Applied Science, Mannheim, Germany).

[2] = tested on: MKN45; test: Immunoblot analysis of phosphorylation of Pim kinase substrates, MKN45; format: cell-based; settings: MKN45, 4 h
Experimental: (§1) Cells were plated overnight and then treated with test compounds for 4 hours. Then, the cells were lyzed in solubilization buffer [10 mM Tris-HCl (pH7.4), 0.1% (w/v) NP-40, 0.1% (w/v) sodium deoxycholate, 0.1% (w/v) SDS, 0.15 M NaCl, 1 mM EDTA, 10 µM aprotinin] with phosphatase inhibitor cocktails (Nakarai Tesque, Kyoto, Japan), and subjected to SDS-PAGE using 15% (w/v) gels under reducing conditions. The separated proteins were electrotransferred to Immobilon transfer membranes (Merck Millipore, Darmstadt, Germany). Then, each membrane was reacted with primary antibodies, which were subsequently complexed with appropriate horseradish peroxidase-conjugated secondary antibodies. Signals were detected using the ECL Western Blotting Detection System (GE Healthcare Life Sciences) and protein expression was quantified with a LAS-3000 Luminescent Image Analyzer (GE Healthcare Life Sciences). The protein bands were quantified using ImageQuant TL software (GE Healthcare Life Sciences).

[3] = tested on: Pim-1, 2, and 3; test: Kinetic assay (Lineweaver-Burk analysis); format: biochemical
Experimental: Enzyme kinetic experiments were performed at pH 7.5 in 50 mM HEPES buffer with 1 mM EGTA, 10 mM MgCl2, and 0.01% Brij-35. […] Plates were immediately placed into a Caliper LabChip EZ Reader II (PerkinElmer Inc.) and wells were sampled periodically throughout an 1-hour reaction period for initial reaction rate. The fluorescent product and substrate were separated and monitored on a Caliper microfluidic instrument. The conversion of substrate was calculated with Caliper software. Ki values were determined from the double reciprocal Lineweaver-Burk plot.

[4] = tested on: MV-4-11; test: Cell cycle analysis, MV-4-11; format: cell-based; settings: 24 h (DMSO 52%)
Text: After treatment, cells were fixed and stained with propidium iodide using the Cell Cycle Phase Determination kit (Cayman Chemical, Ann Arbor, MI, United States) and analyzed by Guava EasyCyteTM Plus System (Merck Millipore).

[5] = tested on: cancer cell lines; test: Cytotoxicity assay for cell survival (cancer cell proliferation); format: cell-based; settings: 96 hours; read-out: IC50 for proliferation of a broad spectrum of cancer cell lines (range)
Text: We obtained colon cancer HCT116 and HT-29 cells, prostate cancer PC-3, DU145, and LNCaP cells, lung cancer NCI-H460 and NCI-H522 cells, breast cancer MDA-MB-231 cells, AML MV-4-11 cells, and chronic myeloid leukemia (CML) K-562, MEG-01, and KU812 cells from American Type Culture Collection (Manassas, VA, United States); stomach cancer MKN45 cells from the Health Science Research Resources Bank (Osaka, Japan); pancreatic cancer AsPC-1 and MIA PaCa-2, and lung cancer A549 cells from DS Pharma Biomedical (Osaka, Japan). All cell lines were cultured in RPMI1640 medium (Life Technologies; Thermo Fisher Scientific Inc.) with 10% (v/v) fetal bovine serum (FBS; Sigma-Aldrich; Merck KgaA) at 37°C in 5% CO2.
Cells were seeded in 96-well plates and test compounds were added to the cultures at several concentrations.

[6] = tested on: MV-4-11; test: Immunoblot analysis of phosphorylation of Pim kinase substrates, MV-4-11; format: cell-based; settings: MV-4-11, 4 h
Experimental: as §1

CN1CCN(c2ccc(-c3cnc4ccc(/C=C5\SC(=O)NC5=O)nn34)cc2)CC1 [YPC-21440, (Z)-5-([3-{4-(4-methylpiperazin-1-yl)phenyl}imidazo[1,2-b]pyridazin-6-yl]methylene)thiazolidine-2,4-dione]
Chromatin condensation ([1]; HCT116, 1 µM, 48 h): induced
DNA fragmentation ([1]; HCT116, ≥ 0.3 µM, 24 h): induced
Phosphorylation levels of Bad, 4EBP, and p21 [2]: decreased
Mode of inhibition of Pim kinases (Lineweaver-Burk) [3]: ATP competitive manner
Percentage of cells in G1 phase ([4]; MV-4-11, 0.3 µM): 55%
Percentage of cells in G1 phase ([4]; MV-4-11, 1 µM): 77%
IC50 [5]: 27 to 1000 nM
Phosphorylation level of 4EBP [6]: decreased
